Experimental findings from ChEMBL document CHEMBL1909046, “DrugMatrix in vitro pharmacology data” are described below.

For assay [1], the target named is 5-hydroxytryptamine receptor 6 (Homo sapiens, UniProt P50406). It is filed as cell membranes, HeLa, Membrane. Conditions: for Ki: read-out: Ki. On all read-outs here: in other assays of this panel Not Active means under 50% inhibition at 10 µM.
The nature of assay [2]: DRUGMATRIX: Nicotinic Acetylcholine radioligand binding (ligand: [125I] Epibatidine). It is filed as cell membranes, Membrane. The note with it: imr-32; Not Active = under 50% inhibition at 10 µM.
The target in another assay is T1, Interstitial collagenase (Homo sapiens, UniProt P03956).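 Further: MMP-1 enzyme inhibition assay using a peptide substrate; in other assays of this panel Not Active means under 50% inhibition at 10 µM.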
T1 sequence (P03956 whole entry): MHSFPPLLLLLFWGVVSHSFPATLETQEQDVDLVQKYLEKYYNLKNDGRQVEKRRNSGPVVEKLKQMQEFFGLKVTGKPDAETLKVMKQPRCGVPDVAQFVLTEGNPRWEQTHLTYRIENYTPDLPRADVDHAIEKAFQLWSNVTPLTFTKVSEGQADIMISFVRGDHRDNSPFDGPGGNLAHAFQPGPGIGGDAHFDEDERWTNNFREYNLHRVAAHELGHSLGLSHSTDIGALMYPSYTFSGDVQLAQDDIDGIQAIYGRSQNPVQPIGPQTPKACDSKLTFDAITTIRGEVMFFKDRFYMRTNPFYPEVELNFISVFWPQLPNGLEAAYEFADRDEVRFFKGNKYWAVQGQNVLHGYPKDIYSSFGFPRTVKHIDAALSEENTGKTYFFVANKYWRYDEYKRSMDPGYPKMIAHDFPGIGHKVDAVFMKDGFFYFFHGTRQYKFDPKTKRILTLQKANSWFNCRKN
Kind of assay: biochemical. Type of assay: tissue-based, Rheumatoid synovial fibroblasts.

Assay [3] can be described thus: DRUGMATRIX: Potassium Channel [KATP] radioligand binding (ligand: [3H] Glyburide). It is filed as cell membranes, Membrane. Conditions: hit-t15; Not Active = under 50% inhibition at 10 µM.
The nature of assay [4]: DRUGMATRIX: GABAA, Flunitrazepam, Central radioligand binding (ligand: [3H] Flunitrazepam). Type of assay: cell membranes, Rattus norvegicus, Wistar, Brain, Membrane. Conditions: Not Active = under 50% inhibition at 10 µM.
A short description of assay [5]: DRUGMATRIX: Glutamate, Kainate radioligand binding (ligand: [3H] Kainic acid). The note with it: Not Active = under 50% inhibition at 10 µM. Type of assay: cell membranes, Rattus norvegicus, Wistar, Brain, Membrane.
In assay [6] the target is Protein kinase C alpha type (Homo sapiens, UniProt P17252). Type of assay: cell-based. The note with it: sf9.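 Further: inhibition of PKCalpha kinase activity measured in an enzyme assay with histone as the phosphorylation substrate; in other assays of this panel Not Active means under 50% inhibition at 10 µM.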

Each structure is given as a SMILES string.

Chain of 5-hydroxytryptamine receptor 6 (P50406 whole entry): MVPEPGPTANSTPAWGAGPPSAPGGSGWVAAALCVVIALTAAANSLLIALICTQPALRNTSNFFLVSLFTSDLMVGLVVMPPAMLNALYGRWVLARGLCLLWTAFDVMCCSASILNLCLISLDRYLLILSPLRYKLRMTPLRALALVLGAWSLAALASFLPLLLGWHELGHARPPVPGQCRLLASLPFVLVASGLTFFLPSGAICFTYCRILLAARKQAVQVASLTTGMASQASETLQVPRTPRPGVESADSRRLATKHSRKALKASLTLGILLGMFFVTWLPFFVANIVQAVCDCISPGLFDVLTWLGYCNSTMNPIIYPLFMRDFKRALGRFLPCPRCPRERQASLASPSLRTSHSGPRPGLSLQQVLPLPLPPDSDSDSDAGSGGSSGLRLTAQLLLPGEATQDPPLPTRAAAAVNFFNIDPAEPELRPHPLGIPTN

As to `C#C[C@]1(O)CC[C@H]2[C@@H]3[C@H](C)CC4=C(CCC(=O)C4)[C@H]3CC[C@@]21C` [TIBOLONE], the IC50 result (in assay [1] (hela); in assay [2]; against Interstitial collagenase; in assay [3]; in assay [4]; in assay [5]) was “Not Active” each time. Further, the IC50 entry in assay [6] is reported as “Not Active”. In addition, the Ki entry in assay [2], in assay [3], in assay [4] and in assay [5] was “Not Active” in each case.
For `C[C@]12CCC(=O)C[C@@H]1CC[C@@H]1[C@@H]2CC[C@]2(C)[C@@H](O)CC[C@@H]12` [STANOLONE], the 50% inhibitory concentration (IC50) result (in assay [1] (hela); in assay [2]; against Interstitial collagenase; in assay [3]; in assay [4]; in assay [5]) was “Not Active” throughout. For the same compound, the IC50 entry in assay [6] is given as “Not Active”. In addition, the inhibitory constant (Ki) entry in assay [2], in assay [3], in assay [4] and in assay [5] was “Not Active” throughout.
Consider `CC(C)(C)NC[C@H](O)COc1cccc2c1CCCC2=O` [LEVOBUNOLOL], for which the IC50 entry (in assay [1] (hela); in assay [2]; against Interstitial collagenase; in assay [3]; in assay [4]; in assay [5]) was “Not Active” each time. In addition, the IC50 result in assay [6] is given as “Not Active”. Moreover, the Ki result in assay [2], in assay [3], in assay [4] and in assay [5] was “Not Active” throughout.
`CCN1CCCC1CNC(=O)c1cc(S(N)(=O)=O)ccc1OC` (stereo not given) [SULPIRIDE]: the half-maximal inhibitory concentration (IC50) entry (in assay [1] (hela); in assay [2]; on Interstitial collagenase; in assay [3]; in assay [4]; in assay [5]) was “Not Active” in each case. The IC50 entry in assay [6] is “Not Active”. In addition, the Ki entry in assay [2], in assay [3], in assay [4] and in assay [5] was “Not Active” each time.
For the compound `CCN(CC)C(=S)SSC(=S)N(CC)CC`, the IC50 in assay [1] (read-out: IC50) was 16 µM; in assay [2] it was “Not Active”; against Interstitial collagenase, “Not Active”; in assay [3] it was “Not Active”; in assay [4], “Not Active”; in assay [5], “Not Active”. The IC50 result in assay [6] is recorded as “Not Active”. The Ki was 7.43 µM in assay [1]; “Not Active” in assay [2]; “Not Active” in assay [3]; “Not Active” in assay [4]; “Not Active” in assay [5].
As to `OC[C@@H](O)[C@@H](O)[C@H](O)[C@H](O)CO` [MANNITOL], the IC50 result (in assay [1] (hela); in assay [2]; against Interstitial collagenase; in assay [3]; in assay [4]; in assay [5]) was “Not Active” throughout. In assay [6], the IC50 entry was “Not Active”. Besides, the Ki entry in assay [2], in assay [3], in assay [4] and in assay [5] was “Not Active” throughout.
Turning to `C[N+]1(C)[C@@H]2C[C@@H](OC(=O)[C@H](CO)c3ccccc3)C[C@H]1[C@@H]1O[C@@H]12.[Br-]` [METHSCOPOLAMINE BROMIDE], the concentration for half-maximal inhibition (IC50) entry (in assay [1] (hela); in assay [2]; against Interstitial collagenase; in assay [3]; in assay [4]; in assay [5]) was “Not Active” each time. Further, in assay [6], the IC50 entry is “Not Active”. Besides, the Ki entry in assay [2], in assay [3], in assay [4] and in assay [5] was “Not Active” in each case.
On to `CCN(CC)CCNC(=O)c1cc(Cl)c(N)cc1OC` [METOCLOPRAMIDE], for which the IC50 entry (in assay [1] (hela); in assay [2]; against Interstitial collagenase; in assay [3]; in assay [4]; in assay [5]) was “Not Active” each time. The IC50 entry in assay [6] was “Not Active”. The Ki entry in assay [2], in assay [3], in assay [4] and in assay [5] was “Not Active” throughout.
For `CC(=O)O[C@]1(C(C)=O)CC[C@H]2[C@@H]3C[C@H](C)C4=CC(=O)CC[C@]4(C)[C@H]3CC[C@@]21C` [MEDROXYPROGESTERONE ACETATE], the IC50 result in assay [1] (hela) was “Not Active”; in assay [2] it was “Not Active”; against Interstitial collagenase, “Not Active”; in assay [3], “Not Active”; in assay [4] (read-out: IC50) it was 7.74 µM; in assay [5], “Not Active”. Also, the IC50 entry in assay [6] was “Not Active”. Besides, the Ki result was “Not Active” in assay [2], “Not Active” in assay [3], 6.3 µM in assay [4] (read-out: Ki) and “Not Active” in assay [5].
Turning to `Cc1ccnc(NS(=O)(=O)c2ccc(N)cc2)n1` [SULFAMERAZINE], the concentration for half-maximal inhibition (IC50) entry (in assay [1] (hela); in assay [2]; against Interstitial collagenase; in assay [3]; in assay [4]; in assay [5]) was “Not Active” throughout. Besides, the IC50 result in assay [6] is listed as “Not Active”. Also, the Ki entry in assay [2], in assay [3], in assay [4] and in assay [5] was “Not Active” throughout.
For the compound `O=C(c1ccccc1)c1ccc2n1CCC2C(=O)O` (stereo not given) [KETOROLAC], the IC50 entry (in assay [1] (hela); in assay [2]; on Interstitial collagenase; in assay [3]; in assay [4]; in assay [5]) was “Not Active” in each case. Also, the IC50 entry in assay [6] is “Not Active”. Also, the Ki entry in assay [2], in assay [3], in assay [4] and in assay [5] was “Not Active” throughout.
Regarding `Cc1nnc(NS(=O)(=O)c2ccc(N)cc2)s1` [SULFAMETHIZOLE], the IC50 result (in assay [1] (hela); in assay [2]; against Interstitial collagenase; in assay [3]; in assay [4]; in assay [5]) was “Not Active” throughout. In addition, the IC50 result in assay [6] is on record as “Not Active”. Further, the Ki entry in assay [2], in assay [3], in assay [4] and in assay [5] was “Not Active” in each case.
`CCC(C)(C)C(=O)O[C@H]1C[C@@H](C)C=C2C=C[C@H](C)[C@H](CC[C@@H]3C[C@@H](O)CC(=O)O3)[C@H]21` [SIMVASTATIN]: the IC50 entry (in assay [1] (hela); in assay [2]; against Interstitial collagenase; in assay [3]; in assay [4]; in assay [5]) was “Not Active” throughout. For the same compound, the IC50 entry in assay [6] was “Not Active”. In addition, the inhibitory constant (Ki) entry in assay [2], in assay [3], in assay [4] and in assay [5] was “Not Active” throughout.
Regarding `Oc1ccc(/C=C/c2cc(O)cc(O)c2)cc1` [RESVERATROL], the IC50 entry (in assay [1] (hela); in assay [2]; on Interstitial collagenase; in assay [3]; in assay [4]; in assay [5]) was “Not Active” in each case. The IC50 entry in assay [6] is recorded as “Not Active”. Besides, the Ki entry in assay [2], in assay [3], in assay [4] and in assay [5] was “Not Active” each time.
For `Cc1cnc(NC(=O)C2=C(O)c3ccccc3S(=O)(=O)N2C)s1` [MELOXICAM], the IC50 entry (in assay [1] (hela); in assay [2]; on Interstitial collagenase; in assay [3]; in assay [4]; in assay [5]) was “Not Active” throughout. For the same compound, the half-inhibitory concentration (IC50) entry in assay [6] is recorded as “Not Active”. The Ki result in assay [2], in assay [3], in assay [4] and in assay [5] was “Not Active” in each case.
On to `CC[C@H](C)[C@@H](CO[C@@H](Cc1ccccc1)C(=O)N[C@@H](CCS(C)(=O)=O)C(=O)OC(C)C)NC[C@@H](N)CS`, for which the IC50 result (in assay [1] (hela); in assay [2]; against Interstitial collagenase; in assay [3]; in assay [4]; in assay [5]) was “Not Active” each time. The IC50 result in assay [6] is given as “Not Active”. Further, the Ki result in assay [2], in assay [3], in assay [4] and in assay [5] was “Not Active” each time.
On to `CNCCCC12CCC(c3ccccc31)c1ccccc12` [MAPROTILINE], for which the IC50 in assay [1] (read-out: IC50) was 0.892 µM; at Interstitial collagenase, “Not Active”; in assay [6], “Not Active”. For the same compound, the Ki in assay [1] is 0.414 µM.
`CN(C)CCC=C1c2ccccc2COc2ccccc21` [DOXEPIN]: the IC50 result (at Interstitial collagenase; in assay [6]) was “Not Active” each time.
In the case of `Cc1cc2c(s1)Nc1ccccc1N=C2N1CCN(C)CC1` [OLANZAPINE], the IC50 entry (against Interstitial collagenase; in assay [6]) was “Not Active” throughout.
